Data set [1] relates to A549 (non-small cell lung cancer). As to the kind of experiment: NCI method SRB growth inhibition, A549. To be noted: Homo sapiens; A549, treated 48 hours, SRB stain. The data set is classed as cell-based. The method in brief: (§1)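 In vitro growth inhibition over 48 h, quantified by SRB protein staining (515 nm) against time-zero and vehicle controls; GI50 reported.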
In data set [2] the test system is 786-0 (renal cancer). As to the kind of experiment: NCI method SRB growth inhibition, 786-0. It is filed as cell-based. To be noted: Homo sapiens; 786-0, treated 48 hours, SRB stain. The method in brief: as §1
(Sulforhodamine B stains cellular protein and so reports cell mass.)

The test system of data set [3] is HCT116 (colon cancer). As to the kind of experiment: NCI method SRB growth inhibition, HCT116. It is filed as cell-based. To be noted: Homo sapiens, HCT-116; HCT116, treated 48 hours, SRB stain. The method in brief:
as §1

The test system of data set [4] is K562 (leukemia). As to the kind of experiment: NCI method SRB growth inhibition, K562. It is filed as cell-based. To be noted: Homo sapiens; K562, treated 48 hours, SRB stain. The method in brief:
as §1

Data set [5] deals with PC-3 (prostate cancer). As to the kind of experiment: NCI method SRB growth inhibition, PC-3. It is filed as cell-based. To be noted: Homo sapiens; PC-3, treated 48 hours, SRB stain. The procedure, abridged: as §1
The test system of data set [6] is LOX-IMVI (melanoma). Put plainly: NCI method SRB growth inhibition, LOX-IMVI. The data set is classed as cell-based. To be noted: Homo sapiens, treated 48 hours, SRB stain. The procedure, abridged: as §1
Data set [7] deals with SF295 (central nervous system tumor). As to the kind of experiment: NCI method SRB growth inhibition, SF295. It is filed as cell-based. To be noted: Homo sapiens, SF-295; SF295, treated 48 hours, SRB stain. The procedure, abridged:
as §1

In data set [8] the test system is OVCAR-3 (ovarian cancer). Put plainly: NCI method SRB growth inhibition, OVCAR-3. To be noted: Homo sapiens; OVCAR-3, treated 48 hours, SRB stain. The data set is classed as cell-based. The method in brief: as §1
Data set [9] relates to HS 578T (breast cancer). As to the kind of experiment: NCI method SRB growth inhibition, HS 578T. It is filed as cell-based. To be noted: Homo sapiens, HS578T, treated 48 hours, SRB stain. The method in brief: as §1
Data set [10] can be described thus: Liver microsomes stability. The data set is classed as in vitro ADME, human. To be noted: for half-life at 1 μM: human, human liver microsomes. The procedure, abridged:
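Compound at 1 μM final incubated with 1 mg/mL human liver microsomes and 1 mM NADPH (no-NADPH control), sampled at 0, 5, 15, 30, 60 min. Remaining parent quantified by LC-MS/MS; T1/2 = 0.693/k.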
Background: Microsomes from liver hold many membrane-bound enzymes, among them those of drug oxidation.

Data set [11] is described as follows: Metabolic stability in vivo (plasma half-life after IV). To be noted: intravenously at 1 mg/kg, male BALB/c nude mice; for half-life: mouse, plasma, iv, read-out: T½ of (IV in nude mice) (converted). As to the method: The intravenous injection group of the embodiment compound was prepared with the mixed solvent of DMA:PEG400:30% SBECD=5:25:70 to form a 0.2 mg/mL of solution, and administered intravenously at 1 mg/kg of weight; and the oral preparation group was prepared with 0.5% MC to form a 1 mg/mL of solution, and administered by oral gavage at 10 mg/kg weight.
• Male BALB/c nude mice, 4-5 weeks old, purchased from Shanghai SLAC. 3. Experiment Method: 3.1 Instruments: • Liquid chromatography system: Shimadzu liquid chromatography system Shimadzu LC-30AD • MS/MS system: Applied Biosystems API5500 • Data collection: Analyst Software 1.5.2 3.2 Chromatographic Conditions Chromatographic Column • Analytical column: Kinetex 2.6u C18 100 A column (3.0 mm×30 mm) • Mobile phase: A: 10 mM NH4OAc (0.1% FA); B: Acetonitrile with 0.1% […] • Flow rate: 1.0 mL/min
Ion source was an electron spray ionization (ESI source) with negative ion detection; spray voltage source was 5500 V; ion source gas 1 (N2) was 50 psi; ion source gas 2 (N2) was 50 psi; air curtain gas (N2) was 30 psi. Scanning mode was multiple reaction monitoring (MRM); scanning time was 80 ms; collision gas pressure was 10 psi;
Grouping experiment, with three animals in each group, starting from now on, administration was started according to the weight of the animals. Blood was collected according to 5 min, 15 min, 30 min, 1 h, 2 h, 4 h, 8 h and 24 h after administration.
To 25.0 μL of plasma, 25.0 μL of internal standard solution (Tolbutamide (250 ng/mL) in acetonitrile), 25.0 μL of acetonitrile and 100 μL of acetonitrile were added, and the mixture was vortexed for 1 min, and centrifuged for 5 min (14000 rpm). 120 μL of the resulting supernatant was added with 80.0 μL of water (containing 1% formic acid) and mixed well, then analyzed by LC/MS/MS.

Setting [12] is: 1 μM compound, 1 mg/mL human liver microsomes, 1 mM NADPH.
[13] abbreviates: 1 μM compound, 1 mg/mL human liver microsomes, 1 mM NADPH, read-out: T½ of HLM.
Where [14] appears, read: as repeated in Table 4, read-out: T½ of HLM (in vitro).

The record followed here is patent US12577213B2 (NINGBO COMBIREG PHARMACEUTICAL TECHNOLOGY CO., LTD., priority 2020, dated 2026).

Read-outs that look alike come from different tables or passages of the source.

In the case of `[2H]C([2H])([2H])C([2H])([2H])N(C(=O)C[C@@H]1NC(=O)c2cc(Oc3cc(C)cc(C)c3)c(NC(=O)c3cc(OC)c(OC)c(OC)c3Cl)cc2NC1=O)C([2H])([2H])C([2H])([2H])[2H]` [Compound 8, (S)-2-chloro-N-[3-[2-[bis(pentadeuteroethyl)amino]-2-oxoethyl]-7-(3,5-dimethylphenoxy)-2,5-dioxo-2,3,4,5-tetrahydro-1H-benzo[e][1,4]diazepin-8-yl]-3,4,5-trimethoxybenzamide], the 50% growth inhibitory concentration (GI50) – broadly, the concentration that inhibits growth by half – in data set [1] was 15.3 nM; in data set [2], 13.9 nM; in data set [3], under 5 nM; in data set [4] it was under 5 nM; in data set [5] it was 9.7 nM; in [6], under 5 nM. For the same molecule, the GI50 amounted to 10.3 nM in data set [7], 5 nM in data set [8] and 13.3 nM in data set [9]. Further, in data set [10] (setting [12]), the intrinsic metabolic clearance (microsomal CLint) (usually the capacity of the preparation to metabolise the compound, expressed as a volume cleared per time) at 1 μM turned out to be 13.7 µL/min/mg. The half-life at 1 μM in data set [10] (setting [13]) and in data set [10] (setting [14]) was 50.6 min each time. The half-life in data set [11] is 38 min.

As for `COc1cc(C(=O)Nc2cc3c(cc2Oc2cc(C)cc(C)c2)C(=O)N[C@@H](CC(=O)N(C)C)C(=O)N3)c(Br)c(OC)c1OC` [d, reference compound], the half-life at 1 μM in data set [10] (setting [14]) stood at 100 min. The half-life in data set [11] was 46.6 min.

Regarding `[2H]C([2H])([2H])Oc1cc(C(=O)Nc2cc3c(cc2Oc2cc(C)cc(C)c2)C(=O)N[C@@H](CC(=O)N(CC)CC)C(=O)N3)c(Cl)c(OC([2H])([2H])[2H])c1OC([2H])([2H])[2H]` [Compound 1, (S)-2-chloro-N-[3-[2-(diethylamino)-2-oxoethyl]-7-(3,5-dimethylphenoxy)-2,5-dioxo-2,3,4,5-tetrahydro-1H-benzo[e][1,4]diazepin-8-yl]-3,4,5-tris(trideuteromethoxy)benzamide], the GI50 is 15 nM in data set [1]; 8.1 nM in data set [2]; 5.4 nM in [3]; under 5 nM in data set [4]; 5.5 nM in data set [5]; under 5 nM in data set [6]. Besides, the GI50 in [7] stood at 12.3 nM; in data set [8] it was 5.5 nM; in data set [9], 31.6 nM. Further, the intrinsic metabolic clearance (microsomal CLint) at 1 μM in data set [10] (setting [12]) worked out at 16.5 µL/min/mg. For the same molecule, the half-life at 1 μM in data set [10] (setting [13]) and in [10] (setting [14]) was 42 min throughout. In [11], the half-life is 53.1 min.

For `[2H]C([2H])([2H])Oc1cc(C(=O)Nc2cc3c(cc2Oc2cc(C)cc(C)c2)C(=O)N[C@@H](CC(=O)N(C([2H])([2H])C([2H])([2H])[2H])C([2H])([2H])C([2H])([2H])[2H])C(=O)N3)c(Cl)c(OC([2H])([2H])[2H])c1OC([2H])([2H])[2H]` [Compound 6, (S)-2-chloro-N-[3-[2-[bis(pentadeuteroethyl)amino]-2-oxoethyl]-7-(3,5-dimethylphenoxy)-2,5-dioxo-2,3,4,5-tetrahydro-1H-benzo[e][1,4]diazepin-8-yl]-3,4,5-tris(trideuteromethoxy)benzamide], the GI50 in data set [1] is 11.7 nM; in [2] it was 16.9 nM; in [3] it was under 5 nM; in data set [4] it was under 5 nM; in [5] it was 10.3 nM; in data set [6], under 5 nM. Also, the GI50 in [7] was determined as 13.1 nM; in [8] it was 11.9 nM; in data set [9], 20.5 nM. This molecule also displayed an intrinsic clearance (microsomal CLint) at 1 μM in data set [10] (setting [12]) of 9.5 µL/min/mg. For the same molecule, the half-life at 1 μM in data set [10] (setting [13]) and in data set [10] (setting [14]) was 73 min each time. Further, the half-life in [11] is 78.6 min.

The molecule `CCN(CC)C(=O)C[C@H]1C(=O)Nc2cc(NC(=O)c3cc(OC)c(OC)c(OC)c3Br)c(Oc3cc(C)cc(C)c3)cc2C(=O)N1C` [a, reference compound] gave an intrinsic clearance (microsomal CLint) at 1 μM in [10] (setting [12]) of 63.1 µL/min/mg. For the same molecule, the half-life at 1 μM in data set [10] (setting [13]) and in data set [10] (setting [14]) was 11 min in each case. Further, the “T½ of (IV in nude mice)” value in data set [11] worked out at 31.9 min.

Regarding `[2H]C([2H])([2H])C([2H])([2H])N(C(=O)C[C@H]1C(=O)Nc2cc(NC(=O)c3cc(OC)c(OC)c(OC)c3Cl)c(Oc3cc(C)cc(C)c3)cc2C(=O)N1C)C([2H])([2H])C([2H])([2H])[2H]` [Compound 12, (S)-2-chloro-N-[3-[2-[bis(pentadeuteroethyl)amino]-2-oxoethyl]-7-(3,5-dimethylphenoxy)-4-methyl-2,5-dioxo-2,3,4,5-tetrahydro-1H-benzo[e][1,4]diazepin-8-yl]-3,4,5-trimethoxybenzamide], the GI50 in data set [1] was under 5 nM; in data set [2], 9.9 nM; in data set [3], under 5 nM; in data set [4], under 5 nM; in data set [5], 5.4 nM; in data set [6], under 5 nM. Also, the GI50 in data set [7] came to 10.8 nM; in data set [8] it was 12.6 nM; in data set [9], 13.3 nM. Also, the intrinsic clearance (microsomal CLint) at 1 μM in data set [10] (setting [12]) turned out to be 30.7 µL/min/mg. In addition, the half-life at 1 μM in data set [10] (setting [13]) and in data set [10] (setting [14]) was 22.6 min each time. Also, the half-life in data set [11] is 34 min.
